Test: Inhibition of farnesyltransferase

Going from `Cn1cncc1C(OCc1ccc(F)c(C(F)(F)F)c1)c1ccc(C#N)c(-c2ccccc2C(F)(F)F)c1` (stereo unspecified) to `Cn1cncc1C(OCc1ccc(Cl)c(Cl)c1)c1ccc(C#N)c(-c2ccccc2C(F)(F)F)c1` (stereo unspecified), the pIC50 rises from 8.38 to 8.76.

First: CC(=O)NC1CCN(c2nc(COC(c3ccc(C#N)c(-c4ccccc4C(F)(F)F)c3)c3cncn3C)ccc2C#N)C1 (stereo unspecified)
Second: Cn1cncc1C(OCc1ccc(C#N)c(N2CCC(O)C2)n1)c1ccc(C#N)c(-c2ccccc2C(F)(F)F)c1 (stereo unspecified)
The pIC50 of the first is higher: 8.76 for the first, 8.45 for the second.

First: Cn1cncc1C(OCc1ccc(C#N)cc1)c1ccc(C#N)c(-c2cccc(Cl)c2Cl)c1 (stereo unspecified)
Second: Cc1ccccc1-c1cc(C(OCc2ccc(C#N)cc2)c2cncn2C)ccc1C#N (stereo unspecified)
The pIC50 of the first is higher: 8.82 for the first, 8.39 for the second.

First: N#Cc1ccc(Cn2cncc2COCc2ccc(C#N)cc2-c2cccc3ccccc23)cc1
Second: N#Cc1ccc(Cn2cncc2COCc2ccc(C#N)cc2-c2cccc(Cl)c2)cc1
The pIC50 of the first is lower: 8.88 for the first, 9.43 for the second.

First: N#Cc1ccc(Cn2cncc2CNC2CCN(Cc3ccc(Cl)cc3)C2=O)cc1 (stereo unspecified)
Second: N#Cc1ccc(Cn2cncc2CCN[C@@H]2CCN(Cc3ccccc3)C2=O)cc1
The pIC50 of the first is higher: 7.6 for the first, 6.6 for the second.

First: N#Cc1ccc(Cn2cncc2CNC2CCN(C(=O)c3cncc(Br)c3)C2=O)cc1 (stereo unspecified)
Second: N#Cc1ccc(Cn2cncc2CNC2CCN(C(=O)c3ccccc3)C2=O)cc1 (stereo unspecified)
The pIC50 of the first is higher: 7.37 for the first, 6.96 for the second.

`Cc1ccccc1-c1cc(C(OCc2cccc(Br)c2)c2cncn2C)ccc1C#N` (stereo unspecified) and `Cc1ccccc1-c1cc(C(OCc2ccc(Br)cc2)c2cncn2C)ccc1C#N` (stereo unspecified) are within 0.2 log units of each other in pIC50: 7.88 for the first, 7.92 for the second.

First: Cc1ccccc1-c1cc(C(OCc2cc(Cl)cc(Cl)c2)c2cncn2C)ccc1C#N (stereo unspecified)
Second: Cc1ccccc1-c1cc(C(OCc2ccc(Cl)cc2)c2cncn2C)ccc1C#N (stereo unspecified)
The pIC50 of the first is lower: 7.72 for the first, 7.95 for the second.

`COc1ncccc1C(=O)N1CCC(NCc2cncn2Cc2ccc(C#N)cc2)C1=O` (stereo unspecified) and `N#Cc1ccc(Cn2cncc2CN[C@@H]2CCN(c3ccccc3)C2=O)cc1` are within 0.2 log units of each other in pIC50: 6.82 for the first, 6.69 for the second.

First: CC(=O)c1ccc(-c2cc(C#N)ccc2COCc2cncn2Cc2ccc(C#N)cc2)cc1
Second: CC(=O)Nc1cccc(-c2cc(C#N)ccc2COCc2cncn2Cc2ccc(C#N)cc2)c1
The pIC50 of the first is higher: 8.88 for the first, 7.88 for the second.

Compared with `N#Cc1ccc(Cn2cncc2COCc2ccc(Cl)cc2-c2cccc(Cl)c2)cc1`, `COc1cccc(-c2cc(C#N)ccc2COCc2cncn2Cc2ccc(Cl)cc2)c1` is lower in pIC50: 9.2 for the first, 8.65 for the second.

Compared with `Cn1cncc1C(OCc1ccc(C#N)cc1)c1ccc(C#N)c(-c2cccc3ccccc23)c1` (stereo unspecified), `Cn1cncc1C(OCc1ccc(C#N)cc1)c1ccc(C#N)c(-c2ccccc2C=O)c1` (stereo unspecified) is lower in pIC50: 9.69 for the first, 8.72 for the second.

`N#Cc1ccc(COCc2cncn2Cc2ccc(C#N)nc2)c(-c2ccc3c(c2)OCO3)c1` and `N#Cc1ccc(Cn2cncc2COCc2cnc(C#N)cc2-c2cccc(Cl)c2)cc1` are within 0.2 log units of each other in pIC50: 8.52 for the first, 8.36 for the second.

First: N#Cc1ccc(Cn2cncc2COCc2ccc(C#N)cc2-c2cccc(Cl)c2)nc1
Second: N#Cc1ccc(Cn2cncc2CN(Cc2ccccc2)C2CCN(Cc3ccccc3)C2=O)cc1 (stereo unspecified)
The pIC50 of the first is higher: 8.76 for the first, 7.17 for the second.

Compared with `Cc1ccccc1-c1cc(C(OCc2ccc(-c3ccccc3)cc2)c2cncn2C)ccc1C#N` (stereo unspecified), `Cc1ccc(COC(c2ccc(C#N)c(-c3ccccc3C)c2)c2cncn2C)cc1` (stereo unspecified) is lower in pIC50: 7.88 for the first, 7.26 for the second.

First: CC(=O)N1CCN(c2nc(COC(c3ccc(C#N)c(-c4ccccc4C(F)(F)F)c3)c3cncn3C)ccc2C#N)CC1 (stereo unspecified)
Second: Cn1cncc1C(OCc1ccc(C#N)c(N2CCN(CCO)CC2)n1)c1ccc(C#N)c(-c2ccccc2C(F)(F)F)c1 (stereo unspecified)
The pIC50 of the first is lower: 8.58 for the first, 8.88 for the second.

Going from `Cn1cncc1C(OCc1ccc(C#N)c(NCC2CCCO2)n1)c1ccc(C#N)c(-c2ccccc2C(F)(F)F)c1` (stereo unspecified) to `Cn1cncc1C(OCc1ccc(C#N)c(N2CCCC(O)C2)n1)c1ccc(C#N)c(-c2ccccc2C(F)(F)F)c1` (stereo unspecified), the pIC50 rises from 8.17 to 8.88.

Compared with `Cn1cncc1C(OCc1ccc(C#N)c(N2CCC[C@@H]2C(=O)O)n1)c1ccc(C#N)c(-c2ccccc2C(F)(F)F)c1` (stereo partly specified), `N#Cc1ccc(Cn2cncc2CN(CCc2ccccc2)C2CCN(Cc3ccccc3)C2=O)cc1` (stereo unspecified) is lower in pIC50: 8.44 for the first, 7.29 for the second.
